Source: PubChem BioAssay AID2060624 (Molecular Pharmacology Branch, DTP, NCI, 2025)
Several values for one entry are separate records, joined by “and”; a condition that tells them apart may be missing. Identical values can stand only once.

Test system: 217524-143-R1-J4-PDC spheroids with HUVEC/MSC, viability
Assay: Anticancer human tumor 217524-143-R1-J4-PDC patient-derived pancreatic carcinoma cell line growth inhibition [CLK]
Settings: for viability, T/C: stronger effect = lower value
Description: A high-throughput screen of multi-cell type tumor spheroids was designed to identify active combinations of […] and targeted small molecules. Complex spheroids include a stromal component modeled by human endothelial cells (HUVEC) and fibroblasts modeled by human mesenchymal stem cells (MSCs). The concentration ranges selected for each drug and investigational agent were based upon clinically achievable concentrations if the clinical Cmax of the agent was known.
Compounds. The drugs and investigational agents: cirtuvivint (SM08502; NSC835563), CC-671 (NSC850746), vemurafenib (NSC761431), tapotoclax (NSC804041), sotorasib (NSC818433), adagrasib (NSC831453), MRTX-1133 (NSC836407), BAY2416964 (NSC825713), copanlisib (NSC816437), inavolisib (NSC800729), abemaciclib (NSC768073), osimertinib (NSC779217), entinostat (NSC756642), eltanexor (KPT-8602, NSC794443), venetoclax (NSC766270), ceralasertib (NSC777638), bortezomib (NSC756655), olaparib (NSC753686), talazoparib (NSC767125), alisertib (NSC759677), peposertib (NSC802822), gemcitabine (NSC613327), 5-fluorouracil (NSC19893), SN-38 (NSC673596), oxaliplatin (NSC266046), paclitaxel (NSC125973), and doxorubicin (NSC123127), were obtained from the National Cancer Institute (NCI) Developmental Therapeutics Program Chemical Repository. The FDA-approved anticancer drug set is available from the Developmental Therapeutics Program at https://dtp.cancer.gov/organization/dscb/obtaining/available plates.htm. […] The stock solutions were prepared in dimethyl sulfoxide (DMSO, Sigma-Aldrich, St. Louis, MO, cat. D2650), except for the platinum complexes which were prepared in saline (Quality Biological, Gaithersburg, MD, cat. 114-055-101), at 800-fold the tested concentration and stored at -70 degrees C prior to their use. All drugs and investigational agents were tested over a range starting from a high concentration at or near the clinical Cmax and decreasing in half-log increments. If the clinical Cmax for an agent had not been determined, the highest concentration tested was 10 microM.
Cell Culture. All cells were maintained in an incubator at 37 degrees C and 5% CO2 with 95% humidity. The PDC lines were cultured according to standard operating procedures established by the NCI PDMR. Briefly, all PDCs were thawed and cultured in Matrigel-coated flasks prepared with a working solution of 1X Ham's F-12 nutrient mix, without supplementation (Invitrogen, Waltham, MA, cat. 11765054), 100 U/mL penicillin-streptomycin (Invitrogen, cat. 15140122), and 2.5% Matrigel (Corning Inc., Corning, NY, cat. 354248) for the first three passages. The 947758-054-R-J2-PDC line was cultured in 6B/Colon 1A media, which includes advanced DMEM/F-12 (Thermo Fisher Scientific, cat. 12634028), 10 mM HEPES (Thermo Fisher Scientific, cat. 15630080), 1X GlutaMAX supplement (Thermo Fisher Scientific, cat. 35050061), 0.1 mg/mL primocin (InvivoGen, cat. ant-pm-2), 10% defined fetal bovine serum, heat inactivated (HyClone Laboratories Inc., cat. SH30070.03HI), 1.25 mM N-Acetyl-L-cysteine (Sigma-Aldrich, cat. A9165), 10 mM nicotinamide (Sigma-Aldrich, cat. N0636), 1X B-27 supplement (Thermo Fisher Scientific, cat. 17504044), 1X N-2 supplement (Thermo Fisher Scientific, cat. 17502048), and 10 microM Y-27632 dihydrochloride (Tocris Bioscience, cat. 1254). The 876862-298-R-J1-PDC was cultured in 6E media, which includes all 6B/Colon 1A media components plus 50% L-WRN conditioned media (ATCC, cat. CRL-3276), 50 ng/mL recombinant human EGF recombinant protein (hEGF; Thermo Fisher Scientific, cat. PHG0311), 10 ng/mL recombinant human fibroblast growth factor 10 (hGFG-10; PeproTech, cat. 100-26), 1 ng/mL recombinant human fibroblast growth factor 2 (hFGF-2; PeproTech, cat. 100-18B), and 1 µM prostaglandin E2 (PGE2; Tocris, cat. 2296). The 227483-062-R1-J1-PDC line was cultured in Panc media, containing all 6E components except hFGF-2, with the addition of 500 nM SB-431542 (Selleckchem, cat. S1067) and 10 nM gastrin (Tocris, cat. 3006). […]
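Also: spheroids exposed to agents for seven days before reading.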
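For viability, T/C in this document: 100% = DMSO vehicle control viability.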

**Q.** What does the source list for `CCN1CCN(Cc2ccc(Nc3ncc(F)c(-c4cc(F)c5nc(C)n(C(C)C)c5c4)n3)nc2)CC1`?
**A.** viability, T/C (compound 0.00316 µM): 104% and 92.1%; viability, T/C (compound 0.01 µM): 74.8% and 70.1%; viability, T/C (compound 0.0316 µM): 90.5% and 66.1%; viability, T/C (compound 0.1 µM): 61.9% and 40.7%; viability, T/C (compound 0.316 µM): 40.3% and 33.4%; viability, T/C (compound 1 µM): 44% and 39.1%; IC50 (curve of compound): 200 nM and 64 nM

**Q.** For `CCc1c2c(nc3ccc(O)cc13)-c1cc3c(c(=O)n1C2)COC(=O)[C@]3(O)CC`, which viability, T/C (compound 0.00316 µM) is on record?
**A.** 51.5% and 55.3%

**Q.** What about the viability, T/C (compound 0.01 µM) of the same molecule?
**A.** 42% and 40.3%

**Q.** What about the viability, T/C (compound 0.0316 µM) of the same molecule?
**A.** 33.3% and 33.9%

**Q.** What about the viability, T/C (compound 0.1 µM) of the same molecule?
**A.** 26.8% and 28.3%

**Q.** And the viability, T/C (compound 0.316 µM)?
**A.** 20.4% and 16.5%

**Q.** And the viability, T/C (compound 1 µM)?
**A.** 5.13% and 2.88%

**Q.** And the IC50 (curve of compound)?
**A.** 3.31 nM and 4.7 nM

**Q.** How did the viability, T/C (compound 0.0316 µM) turn out when `CNC(=O)c1ccc(Nc2nc(OC3CCCC3)c3c(-c4ccc5nc(C)oc5c4)c[nH]c3n2)c(OC)c1` was run?
**A.** 91.6% [middle of 12 runs]

**Q.** What about the viability, T/C (compound 0.1 µM) of the same molecule?
**A.** 46.5% [middle of 12 runs]

**Q.** What about the viability, T/C (compound 0.316 µM) of the same molecule?
**A.** 37.7% [middle of 12 runs]

**Q.** And the viability, T/C (compound 1 µM)?
**A.** 31.2% [middle of 12 runs]

**Q.** What about the viability, T/C (compound 3.16 µM) of the same molecule?
**A.** 27.4% [middle of 12 runs]

**Q.** And the viability, T/C (compound 10 µM)?
**A.** 27.3% [middle of 12 runs]

**Q.** And the IC50 (compound alone, run of 08/01/2023)?
**A.** 96.4 nM [middle of 12 runs]

**Q.** With `COC1C=CCC(C)C(C)S(=O)(=O)NC(=O)c2ccc3c(c2)N(CC2CCC21)CC1(CCCc2cc(Cl)ccc21)CO3` (configuration not stated) as the molecule, how does the viability, T/C (compound 0.0316 µM) read?
**A.** 93.3% and 85.4%

**Q.** What about the viability, T/C (compound 0.1 µM) of the same molecule?
**A.** 112% and 93.6%

**Q.** And the viability, T/C (compound 0.316 µM)?
**A.** 112%

**Q.** What about the viability, T/C (compound 1 µM) of the same molecule?
**A.** 123% and 108%

**Q.** And the viability, T/C (compound 3.16 µM)?
**A.** 125% and 110%

**Q.** What about the viability, T/C (compound 10 µM) of the same molecule?
**A.** 26.2% and 28.4%

**Q.** What about the IC50 (curve of compound) of the same molecule?
**A.** 7310 nM and 7140 nM

**Q.** Which results are given for `COc1c(OCCCN2CCOCC2)ccc2c3n(c(=NC(=O)c4cnc(N)nc4)nc12)CCN3`?
**A.** viability, T/C (compound 0.00316 µM): 74.2% and 71.6%; viability, T/C (compound 0.01 µM): 39.2% and 27.7%; viability, T/C (compound 0.0316 µM): 16.1% and 11.7%; viability, T/C (compound 0.1 µM): 5% and 4.43%; viability, T/C (compound 0.316 µM): 2.63% and 3%; viability, T/C (compound 1 µM): 2.47% and 2.32%; IC50 (curve of compound): 7.04 nM and 5.59 nM

**Q.** With `Cn1ncnc1[C@H]1c2n[nH]c(=O)c3cc(F)cc(c23)N[C@@H]1c1ccc(F)cc1` as the molecule, how does the viability, T/C (compound 0.000316 µM) read?
**A.** 101% and 96.4%

**Q.** And the viability, T/C (compound 0.001 µM)?
**A.** 93.3% and 90.1%

**Q.** What about the viability, T/C (compound 0.00316 µM) of the same molecule?
**A.** 103% and 102%

**Q.** And the viability, T/C (compound 0.01 µM)?
**A.** 85.5% and 93.6%

**Q.** And the viability, T/C (compound 0.0316 µM)?
**A.** 113% and 106%

**Q.** What about the viability, T/C (compound 0.1 µM) of the same molecule?
**A.** 102% and 83.5%

**Q.** What about the IC50 (curve of compound) of the same molecule?
**A.** > 100 nM

**Q.** Which viability, T/C (compound 0.00949 µM) does the source give for `NC(=O)C(=Cn1cnc(-c2cc(C(F)(F)F)cc(C(F)(F)F)c2)n1)c1cncnc1` here?
**A.** 73.8% and 67.8%

**Q.** And the viability, T/C (compound 0.03 µM)?
**A.** 49.3% and 36.5%

**Q.** What about the viability, T/C (compound 0.0949 µM) of the same molecule?
**A.** 27.8% and 21.1%

**Q.** And the viability, T/C (compound 0.3 µM)?
**A.** 21.7% and 27.9%

**Q.** And the viability, T/C (compound 0.949 µM)?
**A.** 25.6% and 28.4%

**Q.** What about the viability, T/C (compound 3 µM) of the same molecule?
**A.** 23.2% and 20.4%

**Q.** And the IC50 (curve of compound)?
**A.** 29 nM and 18.2 nM

**Q.** Which viability, T/C (compound 0.0316 µM) does the source give for `Nc1ccccc1NC(=O)c1ccc(CNC(=O)OCc2cccnc2)cc1` here?
**A.** 112% and 117%

**Q.** What about the viability, T/C (compound 0.1 µM) of the same molecule?
**A.** 102% and 93.9%

**Q.** And the viability, T/C (compound 0.316 µM)?
**A.** 97.4% and 104%

**Q.** And the viability, T/C (compound 1 µM)?
**A.** 89.9% and 98.1%

**Q.** What about the viability, T/C (compound 3.16 µM) of the same molecule?
**A.** 61.6% and 70.6%

**Q.** What about the viability, T/C (compound 10 µM) of the same molecule?
**A.** 31.1% and 34.7%

**Q.** What about the IC50 (curve of compound) of the same molecule?
**A.** 5090 nM and 6150 nM

**Q.** What does the source list for `Nc1ccn(C2OC(CO)C(O)C2(F)F)c(=O)n1` (configuration not stated)?
**A.** viability, T/C (compound 0.0316 µM): 53.5% and 66.5%; viability, T/C (compound 0.1 µM): 28.6% and 26%; viability, T/C (compound 0.316 µM): 22.5% and 22.4%; viability, T/C (compound 1 µM): 24.3% and 26%; viability, T/C (compound 3.16 µM): 25.1% and 29.9%; viability, T/C (compound 10 µM): 29.4% and 29.8%; IC50 (curve of compound): 37.1 nM and 51.3 nM

**Q.** Which results are given for `O=C(c1cc(Cc2n[nH]c(=O)c3ccccc23)ccc1F)N1CCN(C(=O)C2CC2)CC1`?
**A.** viability, T/C (compound 0.0316 µM): 100% and 92.1%; viability, T/C (compound 0.1 µM): 81.1% and 72%; viability, T/C (compound 0.316 µM): 103% and 91.9%; viability, T/C (compound 1 µM): 89.3% and 89.4%; viability, T/C (compound 3.16 µM): 96.2% and 123%; viability, T/C (compound 10 µM): 86.3% and 79.1%; IC50 (curve of compound): > 10000 nM

**Q.** How did the viability, T/C (compound 0.0316 µM) turn out when `O=c1[nH]cc(F)c(=O)[nH]1` was run?
**A.** 94.6% and 72.3%

**Q.** And the viability, T/C (compound 0.1 µM)?
**A.** 93.9% and 80.7%

**Q.** What about the viability, T/C (compound 0.316 µM) of the same molecule?
**A.** 56.5% and 62.8%

**Q.** And the viability, T/C (compound 1 µM)?
**A.** 38% and 36.6%

**Q.** What about the viability, T/C (compound 3.16 µM) of the same molecule?
**A.** 36.2% and 32.5%

**Q.** And the viability, T/C (compound 10 µM)?
**A.** 29.7% and 25.7%

**Q.** What about the IC50 (curve of compound) of the same molecule?
**A.** 457 nM and 563 nM
